The test system of one series is RCC4/VHL cells. Description: XTT assay, RCC4/VHL versus RCC4 cells (selectivity ratio). It is filed as cell-based. In a few lines: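 RCC4 cells with or without VHL (5000/well) exposed to serially diluted compounds for four days. Viability read as XTT metabolism (0.3 mg/ml XTT plus PMS, 1-2 h, 37 °C) at 450 nm. Ratio is IC50 in RCC4/VHL over IC50 in RCC4.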
The next series relates to SN12C tumors. Description: Tumor growth of SN12C cells (wild-type VHL) in scid mice. It is filed as in vivo. Particulars: daily intraperitoneal treatment, FIG. 1E. Here is the method: In vivo studies. 2−3×10^6 SN12C and SN12C-VHL shRNA cells were injected in male scid mice 4-6 weeks old. When tumor volume reached 150 mm^3, mice were randomized into vehicle control group or STF-62247 treatment group. Mice were treated every day with […] of STF-62247 intraperitoneally. Tumor growth was measured every 2-3 days after the drug treatment was started.
A. RCC4 and RCC4/VHL cells were labeled with EYFP and the effect of STF-62247 was monitored by fluorescence in each cell type separately. Cells are pseudocolored. B. Clonogenic assay in RCC4, RCC4/VHL, SN12C, SN12C-VHL shRNA cells in the presence of STF-62247 (0-30 μM). Each point of the cell survival is calculated by the average of three different experiments in triplicate as the percent of treated on untreated plate. The error bars represented the standard error of the mean (SEM). C. Upper Panel, clonogenic assay in RCC4 infected with HIF-1α or HIF-2α shRNA by retroviral infection in presence of drug in same conditions described above. Bottom panel, HIF-1α or HIF-2α protein expression evaluated by western blot in RCC4 cells with HIF-1α or HIF-2α shRNA. Tubulin is used as loading control. […] Tumor volume was measured every 2-3 days and data are represented in fold. Five tumors in each condition were analyzed where * p<0.05, **p<0.01 and ***p<0.005.

Series [1] deals with SN12C and SN12C+shVHL tumor samples. Description: Ki67 immunostaining of tumor samples. It is filed as in vivo, mice. Particulars: RCC deficient in VHL or with wild-type VHL, FIG. 7H. Here is the method:
(§1) B. XTT assay in RCC4 and RCC4/VHL in presence of STF-62247 (0-40 μM). Each point of the cell survival is calculated by the average of three different experiments in duplicate as the percent of treated on untreated plate. The error bars are represented as the standard error of the mean (SEM) C. qRT-PCR for Glutl, VEGF, PDF and PGK in RCC4 cells with or without HIF-1a, HIF-2a shRNA and in RCC4/VHL. D. Hoescht staining in RCC4 and RCC4/VHL cells with 1.25 μM of STF-62247 for 2 days. Camptothecin was used as positive control E. FACS analysis for apoptosis after an annexin V-FITC staining in presence or absence of propidium iodine (PI) in cells after a treatment in same conditions than in C. F. Immunoblot for active caspase-3 in RCC4 and RCC4/VHL following treatment with 1.25 μM of STF-62247 for 24 hours. Staurosporine was used as positive control (0.2 μM for 24 hours). G,H. Immunostaining of caspase-3 and Ki67 respectively in SN12C and SN12C+shVHL tumor samples untreated or treated with 30 μM of STF-62247.1. Immunoblot for p53 and SerlS phospho-p53 in RCC4 and RCC4/VHL cells after a treatment with 1.25 μM of STF-62247 or doxorubicin for 24 hours.

The next series relates to RCC4 and RCC4/VHL cells. Description: DNA damage: comet assay and p53 immunoblot. It is filed as cell-based. Here is the method: as §1
On the technique in general: Immunoblotting shows a protein as a band on a membrane.

In series [2] the test system is RCC4, RCC4/VHL, SN12C and SN12C-VHL shRNA cells. Description: Vacuole formation by light and time-lapse microscopy. Format: cell-based. Here is the method: A. Phase contrast pictures of VHL-deficient RCC4 and SN12C-VHL shRNA cells and VHL-positive cells RCC4 and SN12C after 20 hrs of 1.25 μM STF-62247. B. Immunostaining for LC3 following STF-62247 treatment at 1.25 μM for 20 hrs with or without 2 mM of 3-MA in RCC4 with and without VHL cells. After treatment, cells were fixed, permeabilized and processed for the detection of punctuate staining by indirect immunofluorescence. C. Autophagic vacuoles stained with monodansylcadaverine (MDC). After STF-62247 treatment in the same conditions, MDC was added for the last 10 minutes. Cells were fixed, washed with PBS and observed directly under microscope. D. Western blot for LC3 in RCC4, RCC4/VHL, SN12C, and SN12C-VHL shRNA cells after STF-62247 treatment with or without 3-MA. Nutrient starvation (EBSS) is used as positive control. […] Viability is measured by trypan blue exclusion assay and is represented by the average of three different experiments in duplicate as the percent of treated on untreated cells. […]
A. RCC4 and RCC4/VHL were treated with 1.25 μM of each 19 analogs for 20 hours and the presence of vacuoles was examined under light microscopy. […] Acidic vesicle organelles (AVO) measured by FACS analysis in cells treated with 1.25 μM of STF-62247 or with compounds 21, 15, 25, 47, and 53 and stained with acridine orange.

The source of these data is patent publication US20110105436A1, “HETEROARYL COMPOUNDS, COMPOSITIONS, AND METHODS OF USE IN CANCER TREATMENT” (AUCKLAND UNISERVICES LIMITED, priority 2008, published 2011).

Consider `Cc1cccc(Nc2nc(-c3ccncc3)cs2)c1` [Compound 5, N-(3-Methylphenyl)-4-(4-pyridinyl)-1,3-thiazol-2-amine], for which, in the series with RCC4/VHL cells (Table 1, selectivity ratio, IC50 in RCC4/VHL cells/IC50 in RCC4 cells), the Ratio is given as 19. Besides, the “IC50 ratio (wild-type VHL/VHL-deficient cells)” value with RCC4/VHL cells (structure-activity text on Tables 1 and 2) is given as “high IC50 ratio”. Moreover, in the series with SN12C tumors, the tumor growth result was “did not have any effect on the growth of SN12C tumor cells that have wild-type VHL”. Further, the “proliferation by Ki67 staining” value in series [1] is “no difference in proliferation”. In addition, the “phosphorylation of p53 on serine 15 and total p53 levels” value with RCC4 and RCC4/VHL cells (1.25 μM, 24 hours, FIG. 7I) was “unaffected”. In addition, in the series on RCC4 and RCC4/VHL cells (data not shown), the “DNA damage by comet assay” value is listed as “did not induce DNA damage”. Moreover, the vacuole formation entry in series [2] (1.25 μM, 20 hrs, FIG. 2A) is “accumulated intracytoplasmic vacuoles characteristic of cells undergoing autophagy”. For the same molecule, the “time of appearance of vacuoles after addition” value in series [2] (time-lapse for 48 hours, RCC cells with and without VHL) came to 3 h.
